In this assay the test system is LOX IMVI viability, ATP luminescence, 8/24/48 h. Kind of assay: cytotoxicity in LOX IMVI melanoma cells – cell-based, CellTiter-Glo ATP luminescence, 8/24/48 h, dry powder, HRAS target identification, dose response (AID 720602). Background: ATP-based viability assays read luminescence as a measure of living cells.

The AC50 is the concentration giving half of the maximal activity seen. High values mean weaker potency, low ones greater potency. Regarding `Cc1onc(C(=O)N2CCN(C(c3ccc(Cl)cc3)c3ccc(Cl)cc3)CC2)c1[N+](=O)[O-]`, the AC50 (measured here: AC50 at 8 h) was 60 nM, the AC50 (measured here: AC50 at 24 h) worked out at 36.6 nM and the half-maximal activity concentration (AC50) (measured here: AC50 at 48 h) worked out at 499 nM.

In the case of `CC(C)(C)OC(=O)NCCOCCOCCOc1ccc(N(C(=O)CCl)C(C(=O)NCCc2ccccc2)c2cccs2)cc1Cl` (stereo not given), the AC50 is, setting by setting: (measured here: AC50 at 8 h) 43.5 nM; (measured here: AC50 at 24 h) 34.2 nM; (measured here: AC50 at 48 h) 390 nM.

Compound `COc1ccc(N(C(=O)CCl)C(C(=O)NCCc2ccccc2)c2cccs2)cc1Cl` (stereo not given) registered an AC50 (measured here: AC50 at 8 h) of 21 nM, an AC50 (measured here: AC50 at 24 h) of 25.9 nM and an AC50 (measured here: AC50 at 48 h) of 122 nM.

Compound `COC(=O)c1ccc([C@@H]2c3[nH]c4ccccc4c3C[C@@H](C(=O)OC)N2C(=O)CCl)cc1` showed an AC50 (measured here: AC50 at 8 h) of 15.7 nM, an AC50 (measured here: AC50 at 24 h) of 10.1 nM and an AC50 (measured here: AC50 at 48 h) of 187 nM.

`C#CCCCC(=O)NCCOCCOCCOc1ccc(N(C(=O)CCl)C(C(=O)NCCc2ccccc2)c2cccs2)cc1Cl` (stereo not given) displayed an AC50 (measured here: AC50 at 8 h) of 193 nM, a half-maximal activity concentration (AC50) (measured here: AC50 at 24 h) of 146 nM and a concentration at half-maximal activity (AC50) (measured here: AC50 at 48 h) of 2640 nM.
